Results as given in patent US11981642B1, “4-(4,5-bis(4-bromophenyl)-2-(4-chlorophenyl)-1H-imidazol-1-yl)butanoic acid as an antimicrobial compound” (priority 2023, dated 2024).

System: different microbes (Bacillus cereus, Staphylococcus aureus, Pseudomonas aeruginosa, Escherichia coli, Aspergillus flavus, Chrysosporium keratinophilum)
Test: Antimicrobial testing, agar plate disc-diffusion method
Type: cell-based
Conditions: screened against gram-positive and gram-negative bacteria and fungi; result in words only, no inhibition zones printed
Method: The agar plate disc-diffusion method was applied. Sterilized filter papers (6 mm in diameter) were wetted with 10 μL of a solution of 4-(4,5-bis(4-bromophenyl)-2-(4-chlorophenyl)-1H-imidazol-1-yl)butanoic acid (V) to be tested, containing 10 mg/mL in DMSO, and the discs were allowed to air dry. The discs were then placed onto the surface of agar plates (nutrient agar for bacteria and Sabouraud's dextrose agar for fungi) seeded with the test organism. Each plate contained 15 mL of the agar medium, previously seeded with 0.2 mL of the broth culture of each organism pregrown for 18 hours. The plates were incubated at 37° C. for 48 hours, and 72 hours for fungi. The inhibition zones was measured in mm. Discs impregnated with DMSO were used as a control, and its inhibition zone was subtracted from the tested compound actual inhibition zone.

## O=C(O)CCCn1c(-c2ccc(Cl)cc2)nc(-c2ccc(Br)cc2)c1-c1ccc(Br)cc1 [V, 4-(4,5-bis(4-bromophenyl)-2-(4-chlorophenyl)-1H-imidazol-1-yl)butanoic acid]
  antimicrobial activities against different microbes: excellent antimicrobial activities
